# Test results: US20240245641A1, “PHARMACEUTICAL COMPOSITION FOR PREVENTING OR TREATING DIABETES MELLITUS IN ANIMAL OF FAMILY CANIDAE, COMPRISING ENAVOGLIFLOZIN” (DAEWOONG PHARMACEUTICAL CO., LTD., priority 2021, published 2024)
# How the values were obtained:
# [1] = test system: dogs with insulin-dependent diabetes mellitus (type 1 diabetes mellitus); assay: Evaluation of regulation of blood glucose after 8 weeks of enavogliflozin with insulin; type: in vivo, dog
# Protocol: (§1) This study evaluated the safety and efficacy of enavogliflozin along with insulin therapy in dogs with insulin-dependent diabetes mellitus (type 1 diabetes mellitus) as a prospective, open-label, non-randomized, multicenter, and proof-of-concept study. The efficacy and safety of enavogliflozin were evaluated at predetermined times during the treatment period.
# (§2) Diabetic dogs meeting the following criteria were allowed to participate in a clinical trial: Small dogs under 15 years of age (less than 10 kg), medium-sized dogs under 13 years of age (11 to 22 kg), stable basal dose insulin therapy at least 1 month prior to the screening visit, post-insulin nadir (Nadir) blood glucose minimum of 200 mg/dl, and blood ketone levels less than 0.6 mmol/L.
# (§3) However, diabetic dogs meeting the following criteria were excluded: Dogs with chronic kidney disease (CKD IRIS stage >2), hypotension evaluation, administration of diuretics or related drugs, confirmed pregnancy, and taking drugs affecting the test within 14 days prior to test start.
# (§4) The study was performed for 8 weeks, and dogs participating in the clinical trial were divided into two groups, a TOD test group and a SID test group, according to the dose of enavogliflozin administered. Enavogliflozin was administered to the TOD test group and the SID test group at a dose of 0.025 mg/kg once every 3 days and once a day, respectively. For proper evaluation, the dogs were administered the drug with breakfast, and after dosing was completed, dogs underwent physical examinations such as blood pressure, blood tests and urine tests. Thereafter, researchers adjusted insulin doses to meet target blood glucose levels during monitoring (Nadir glucose levels, 80 to 150 mg/dl).
# (§5) A primary evaluation variable was whether blood fructosamine levels decreased without developing severe hypoglycemia or diabetic ketoacidosis (DKA) after the animals were randomly divided into groups. A secondary evaluation variable was a change in fasting blood glucose levels, body weight and a mean bolus dose of insulin from baseline to 8 weeks. […] The diagnosis of diabetic ketoacidosis was evaluated based on the presence of anion-gap metabolic acidosis associated with excessive ketogenesis without other causes. Safety information including data on clinical and laboratory values and side effects was collected at each study visit.
# (§6) Differences before and after drug administration within the groups were compared using the Student paired t-test or the Wilcoxon rank test. Furthermore, differences between groups after drug administration through a mixed ANOVA test were confirmed. Statistical analysis was performed with the R programming language (https://cran.r-project.org/) and GraphPad Prism version 7 (GraphPad Software, Inc., La Jolla, California). A p-value less than 0.05 was considered statistically significant.
# The regulation of blood glucose before and after administration was confirmed through blood tests (fructosamine and fasting glucose) and the daily insulin dose. […] However, fructosamine concentration was improved (p=0.041). […] In addition, as a result of comparing the difference between the test groups at 8 weeks, there was no significant difference in fasting blood glucose, fructosamine, and insulin reduction rate. However, there was a tendency towards a decrease in the SID test group taking enavogliflozin once a day compared to the TOD test group taking enavogliflozin once every 3 days (FIGS. 2A to 2C).
# [2] = test system: dogs with insulin-dependent diabetes mellitus (type 1 diabetes mellitus); assay: Evaluation of lipid metabolism after administration of enavogliflozin; type: in vivo, dog; details: after 8 weeks treatment, mean ± S.D
# Protocol: as §1, §2, §3, §4, §5, §6
# Blood cholesterol was measured to confirm the effect of enavogliflozin on lipid metabolism. Changes in triglycerides and total cholesterol (T-Chol) were not statistically significant. […] In Table 5, all values are expressed as mean±S.D, and p-values less than 0.05 were considered statistically significant.
# [3] = test system: dogs with insulin-dependent diabetes mellitus (type 1 diabetes mellitus); assay: Evaluation of metabolic acidosis after administration of enavogliflozin; type: in vivo, dog; details: for Anion Gap / HCO3 / Ketone (blood) / LDH / pH (venous blood gas): after 8 weeks treatment, mean ± S.D
# Protocol: as §1, §2, §3, §4, §5, §6
# In addition, when lactate dehydrogenase (LDH) was measured, there was no significant change in both test groups compared to before administration. Blood pH, bicarbonate (HCO3), and the anion gap were confirmed by a venous blood gas test, and there was no significant difference before and after administration (Table 4). […] In Table 4, all values are expressed as mean±S.D, and p-values less than 0.05 were considered statistically significant.
# [4] = test system: dogs with insulin-dependent diabetes mellitus (type 1 diabetes mellitus); assay: Evaluation of body weight and blood pressure after administration of enavogliflozin; type: in vivo, dog
# Protocol: as §1, §2, §3, §4
# (§7) A primary evaluation variable was whether blood fructosamine levels decreased without developing severe hypoglycemia or diabetic ketoacidosis (DKA) after the animals were randomly divided into groups. […] The diagnosis of diabetic ketoacidosis was evaluated based on the presence of anion-gap metabolic acidosis associated with excessive ketogenesis without other causes. […]
# [5] = test system: dogs with insulin-dependent diabetes mellitus (type 1 diabetes mellitus); assay: Evaluation of renal function (blood and urine tests) after administration of enavogliflozin; type: in vivo, dog; details: after 8 weeks treatment, mean ± S.D
# Protocol: as §1, §2, §3, §4, §5, §6
# Changes in renal function before and after administration of enavogliflozin were confirmed through blood and urine tests. Blood test items include blood urea nitrogen (BUN), creatinine, symmetric di-methyl-arginine (SDMA), cystatin-C, beta-2-microglobulin (B2M) and N-acetyl-β-d-glucosaminidase (NAG). Urinalysis items include urine specific gravity (USG) and urine protein to creatinine (UPC) ratio.
# [6] = target: T1, human SGLT2 (Homo sapiens, UniProt P31639); details: disclosed in U.S. Patent Publication No. 2015/0152075; cited from earlier work
# T1 sequence (P31639 1-672): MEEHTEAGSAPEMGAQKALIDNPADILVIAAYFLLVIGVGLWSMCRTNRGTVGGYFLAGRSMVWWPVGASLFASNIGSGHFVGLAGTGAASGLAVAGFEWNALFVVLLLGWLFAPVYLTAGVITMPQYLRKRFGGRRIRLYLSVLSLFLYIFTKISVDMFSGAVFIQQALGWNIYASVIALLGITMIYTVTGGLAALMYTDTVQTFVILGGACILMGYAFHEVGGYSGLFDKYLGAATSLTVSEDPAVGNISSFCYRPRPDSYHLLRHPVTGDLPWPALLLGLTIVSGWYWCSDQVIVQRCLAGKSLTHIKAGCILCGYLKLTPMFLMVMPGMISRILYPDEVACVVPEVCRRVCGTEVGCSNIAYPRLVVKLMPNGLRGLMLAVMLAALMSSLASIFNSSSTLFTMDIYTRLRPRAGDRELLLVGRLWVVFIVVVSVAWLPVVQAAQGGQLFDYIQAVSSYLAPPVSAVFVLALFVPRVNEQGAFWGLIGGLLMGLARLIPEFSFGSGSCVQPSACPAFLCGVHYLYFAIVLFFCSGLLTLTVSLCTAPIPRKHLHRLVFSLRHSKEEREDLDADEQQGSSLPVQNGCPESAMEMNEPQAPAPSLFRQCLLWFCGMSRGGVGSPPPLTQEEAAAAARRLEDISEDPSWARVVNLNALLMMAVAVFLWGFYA
# [7] = test system: dogs with insulin-dependent diabetes mellitus (type 1 diabetes mellitus); assay: Long-term effectiveness, enavogliflozin with insulin for up to 6 months; type: in vivo, dog
# Protocol: In addition, long-term effectiveness was confirmed by additionally administering enavogliflozin to the companion dogs participating in the clinical trial at the same usage and dosage (SID or TOD) for up to 6 months.
# as §6
# Furthermore, as a result of confirming the long-term effectiveness by administering enavogliflozin at the same usage and dose for up to 6 months, fasting blood glucose, fructosamine and insulin reduction rate were improved in all SID/TOD test groups.
# [8] = test system: dogs with insulin-dependent diabetes mellitus (type 1 diabetes mellitus); assay: Evaluation of side effects after administration of enavogliflozin with insulin (disease activity index, cystitis, hypoglycemia); type: in vivo, dog
# Protocol: as §1, §2, §3, §4, §7
# [9] = TOD test group, 0.025 mg/kg once every 3 days with insulin, 8 weeks
# [10] = SID test group, 0.025 mg/kg once a day with insulin
# [11] = TOD test group, 0.025 mg/kg once every 3 days with insulin
# [12] = both groups (TOD and SID), 0.025 mg/kg with insulin, 8 weeks
# [13] = SID administration group, 0.025 mg/kg once a day with insulin, up to 6 months (p<0.0234)
compound,measurement,setting,value
OC[C@H]1O[C@@H](c2cc(Cc3ccc(C4CC4)cc3)c(Cl)c3c2CCO3)[C@H](O)[C@@H](O)[C@@H]1O [enavogliflozin],daily insulin dose,"[1]; SID test group, 0.025 mg/kg once a day with insulin, after 8 weeks (before: 2.0±0.8)",1.5±0.5 units/kg/day
same,fasting blood glucose,"[1]; SID test group, 0.025 mg/kg once a day with insulin, after 8 weeks (before: 330.8±118.0; p=0.0078)",215.5 ± 126.2 mg/dL
same,fructosamine levels,"[1]; SID test group, 0.025 mg/kg once a day with insulin, after 8 weeks (before: 475.3±107.6; p=0.034)",393.1 ± 122.9 µmol/L
same,"daily insulin dose, change before/after administration",[1]; [9],"decreased, but the difference was not statistically significant"
same,"fasting blood glucose, change before/after administration",[1]; [9],"decreased, but the difference was not statistically significant"
same,"fructosamine concentration, change before/after administration","[1]; TOD test group, 0.025 mg/kg once every 3 days with insulin, 8 weeks (p=0.041)",improved
same,Lipase,[2]; [10],226.8 ± 215.0 U/L
same,T-Chol (total cholesterol),[2]; [10],261.3 ± 150.5 mg/dL
same,Triglyceride,[2]; [10],515.2 ± 977.9 mg/dL
same,Lipase,[2]; [11],197.3 ± 230.1 U/L
same,T-Chol (total cholesterol),[2]; [11],327.6 ± 114.7 mg/dL
same,Triglyceride,[2]; [11],384.9 ± 425.3 mg/dL
same,Anion Gap,[3]; [10],13.2 ± 4.5 mmol/L
same,HCO3,[3]; [10],25.0 ± 2.5 mmol/L
same,Ketone (blood),[3]; [10],0.4 ± 0.1 mmol/L
same,LDH,[3]; [10],230.8 ± 79.6 U/L
same,pH (venous blood gas),[3]; [10],7.4 ± 0.1
same,Anion Gap,[3]; [11],12.0 ± 4.2 mmol/L
same,HCO3,[3]; [11],24.3 ± 3.6 mmol/L
same,Ketone (blood),[3]; [11],0.2 ± 0.1 mmol/L
same,LDH,[3]; [11],444.5 ± 584.7 U/L
same,pH (venous blood gas),[3]; [11],7.4 ± 0.1
same,diabetic ketoacidosis,"[3]; both test groups, eight weeks after administration",did not occur
same,"Blood pressure (systolic), change after administration","[4]; SID test group, 0.025 mg/kg once a day with insulin, 8 weeks (p=0.033)",significantly reduced
same,"BCS (body condition score), change after administration",[4]; [12],no difference
same,"Body weight, change after administration",[4]; [12],tended to decrease
same,BUN,"[5]; SID test group (n = 8), 0.025 mg/kg once a day with insulin",21.9 ± 6.8 mg/dL
same,Creatinine,[5]; [10],0.6 ± 0.1 mg/dL
same,Cystatin-C,[5]; [10],0.5 ± 0.1 mg/L
same,NAG,[5]; [10],9.0±4.3 U/g
same,SDMA,[5]; [10],7.8 ± 1.4 µg/dL
same,UPC (urine protein to creatinine ratio),[5]; [10],1.1±1.6
same,USG (urine specific gravity),[5]; [10],1.043±0.008
same,BUN,"[5]; TOD test group (n = 10), 0.025 mg/kg once every 3 days with insulin",22.5 ± 11.7 mg/dL
same,Creatinine,[5]; [11],0.9 ± 0.2 mg/dL
same,Cystatin-C,[5]; [11],0.5 ± 0.2 mg/L
same,NAG,[5]; [11],7.6±5.8 U/g
same,SDMA,[5]; [11],9.2 ± 5.5 µg/dL
same,UPC (urine protein to creatinine ratio),[5]; [11],1.1±1.8
same,USG (urine specific gravity),[5]; [11],1.034±0.011
same,inhibitory effect on human SGLT2 activity,[6],excellent inhibitory effect
same,"fasting blood glucose, 6 months",[7]; [13],statistically significant reduction
same,"insulin reduction rate, 6 months",[7]; [13],statistically significant reduction
same,"fructosamine, 6 months","[7]; TOD test group, 0.025 mg/kg once every 3 days with insulin, up to 6 months (p<0.0313)",statistically significant reduction
same,"fasting blood glucose, fructosamine and insulin reduction rate, 6 months","[7]; all SID/TOD test groups, 0.025 mg/kg with insulin, up to 6 months",improved
same,new cases of bacterial cystitis,"[8]; any test group (TOD, SID), 8 weeks",no new cases
same,"disease activity index (appetite, activity, stool status)","[8]; dog, in vivo",no difference between before and after administration
same,severe hypoglycemia leading to loss of consciousness or seizures,"[8]; dog, in vivo",no severe hypoglycemia
